Assay results as given in patent US20250333683A1, “A METHOD AND SYSTEM FOR SIMULATING STEM CELL DIFFERENTIATION DYNAMICS” (CellVoyant Technologies Limited, priority 2024, published 2025).

System: human pluripotent cells (hPCs)
Test: Observed ground truth mesoderm differentiation (Brachyury immunofluorescence)
Format: cell-based
Experimental: Stem cell differentiation: To differentiate cells into cardiac mesoderm cells, cardiomyocytes and/or endothelial intermediate, protocol described in Giacomelli et al., [1] was adapted.
Briefly, human pluripotent cells (hPCs) were seeded, as a monolayer culture, into 96-well imaging plate in BPLE basal media for twenty-four hours, with the bovine serum albumin (BSA) polyvinylalcohol essential lipids (BPLE) basal media being supplemented with 20 ng/ml of ActinvinA (Peprotech, 120-14E-2 μG), 20 ng/ml of BMP4 (Peprotech, 120-05ET-2 μG) and varying concentrations of CHIR99201 (Selleckchem, S1263). CHIR99021 was removed randomly after either 24 or 48 hours of differentiation, to determine the effect of CHIR99021 on mesoderm differentiation rates.
The day after, the primary antibody was washed out, and the cells were incubated with the fluorescence-conjugated secondary antibody (1:1000) for 1 hour at room temperature. DAPI solution was used to detect nuclei.
Ground truth for fate forecasting was inferred by using Cellpose to segment individual cell nuclei on the DAPI channel. A Multi-Otsu threshold was carried out on the Brachury channel to separate the images into foreground and background. The total number of nucleii detected was recorded and the two sets of masks were correlated to determine the proportion of cells that were positive for the immunofluorescence marker. […]

SMILES: Cc1c[nH]c(-c2cnc(NCCNc3ccc(C#N)cn3)nc2-c2ccc(Cl)cc2Cl)n1 [CHIR99021]
- observed ground truth proportion of cells acquiring the mesodermal cell fate (CHIR99021 0.93 μM, applied for 24 hours): very low proportion
- observed ground truth amount of Brachury positive cells after removal of CHIR99021 (CHIR99021 1.93 μM, removed after 48 hours): decrease in the amount of Brachury positive cells
